One assay deals with T1, Human TLR7/8.
T1 construct: IC50; other: Hu PBMC; ligand RNA-Ig; analyte IL-6; analyte TNFα; ligand R848; IC50 against the RNA-Ig TLR7/8 stimulus; cytokine responses to RNA-Ig complexes in vitro; potency against the RNA-Ig TLR7/8 stimulus versus HCQ
Description: Human PBMC cell-based assay, R848 stimulus, IL-6 ELISA. As to conditions: Hu PBMC; ligand R848; analyte IL-6. The procedure: (§1) Human peripheral blood mononuclear cells (PBMC) were isolated from freshly-drawn heparinized (10 USP units/ml, Hospira, Lakeforest, Ill.) healthy donor whole blood by density gradient (Histopaque® 1077, Sigma, Inc., St. Louis, Mo.). Briefly, 25 ml blood was diluted with 15 ml PBS (without Ca^2+, Mg^2+) in a 50 ml conical tube, and 12 ml Histopaque was underlaid using a spinal needle. Tubes were centrifuged for 45 minutes at 1200 rpm (350×g), and PBMC were collected from the buffy coat. Cells were then washed twice in PBS, and red blood cells were lysed by suspension in 5 ml ammonium chloride solution (1× Red Blood Cell Lysis Buffer, eBioscience) for 5 minutes at room temperature. […]
(§2) Antagonist compounds solubilized and serial diluted in 100% DMSO were added in triplicate to cells to yield a final concentration of 0.1% DMSO (v/v). […] Cell culture supernatants were collected, and levels of various human cytokines were assessed as indicated by standard ELISA procedure according to the manufacturer's recommended protocol (BD Biosciences, Inc., San Diego, Calif.).
In general terms: An ELISA detects its analyte on a solid surface through an enzyme-linked reagent.

The target in the next assay is Human TLR4 (Homo sapiens, UniProt O00206). Description: Human PBMC cell-based assay, LPS stimulus, IL-6 ELISA. The arrangement: endogenous in cells; host or cells: primary human PBMC from healthy donor blood. The following applies: Hu PBMC; ligand LPS; analyte IL-6. As to the method:
as §1, §2

In another assay the target is T2, Human TLR9 (Homo sapiens, UniProt Q9NR96).
T2 sequence (Q9NR96 26-1032): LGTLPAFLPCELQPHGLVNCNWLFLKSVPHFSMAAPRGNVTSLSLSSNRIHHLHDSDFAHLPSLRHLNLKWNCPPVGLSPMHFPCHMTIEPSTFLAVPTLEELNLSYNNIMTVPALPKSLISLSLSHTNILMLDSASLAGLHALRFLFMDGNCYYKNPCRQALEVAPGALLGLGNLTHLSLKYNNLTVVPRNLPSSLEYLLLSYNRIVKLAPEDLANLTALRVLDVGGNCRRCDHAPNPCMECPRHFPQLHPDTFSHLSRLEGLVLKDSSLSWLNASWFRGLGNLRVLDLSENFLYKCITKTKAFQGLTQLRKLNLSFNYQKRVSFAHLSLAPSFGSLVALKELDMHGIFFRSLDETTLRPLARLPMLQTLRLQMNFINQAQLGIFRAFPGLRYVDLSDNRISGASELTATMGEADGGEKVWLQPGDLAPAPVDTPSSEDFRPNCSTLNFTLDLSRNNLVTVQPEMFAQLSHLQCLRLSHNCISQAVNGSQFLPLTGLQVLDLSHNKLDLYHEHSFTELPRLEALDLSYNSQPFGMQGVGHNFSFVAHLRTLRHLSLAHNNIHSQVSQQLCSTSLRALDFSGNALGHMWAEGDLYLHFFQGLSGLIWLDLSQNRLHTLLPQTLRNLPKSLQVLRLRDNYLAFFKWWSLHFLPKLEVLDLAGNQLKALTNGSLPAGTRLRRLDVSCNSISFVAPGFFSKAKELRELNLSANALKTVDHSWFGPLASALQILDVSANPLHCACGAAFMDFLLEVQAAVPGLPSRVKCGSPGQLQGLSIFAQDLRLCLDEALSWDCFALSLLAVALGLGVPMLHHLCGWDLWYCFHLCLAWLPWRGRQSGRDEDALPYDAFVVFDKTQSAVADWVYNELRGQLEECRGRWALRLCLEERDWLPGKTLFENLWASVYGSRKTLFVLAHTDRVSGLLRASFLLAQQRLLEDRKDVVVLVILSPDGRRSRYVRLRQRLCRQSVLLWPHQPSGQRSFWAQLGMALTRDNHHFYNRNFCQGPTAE
Description: Human PBMC cell-based assay, CpG-ODN stimulus, IL-6 ELISA. The arrangement: endogenous in cells; host or cells: primary human PBMC from healthy donor blood. As to conditions: Hu PBMC; ligand CpG-ODN; analyte IL-6. The procedure:
as §1, §2

A value given as a limit tells only on which side of the number the result lay.

Sequence of Human TLR4 (O00206 24-839): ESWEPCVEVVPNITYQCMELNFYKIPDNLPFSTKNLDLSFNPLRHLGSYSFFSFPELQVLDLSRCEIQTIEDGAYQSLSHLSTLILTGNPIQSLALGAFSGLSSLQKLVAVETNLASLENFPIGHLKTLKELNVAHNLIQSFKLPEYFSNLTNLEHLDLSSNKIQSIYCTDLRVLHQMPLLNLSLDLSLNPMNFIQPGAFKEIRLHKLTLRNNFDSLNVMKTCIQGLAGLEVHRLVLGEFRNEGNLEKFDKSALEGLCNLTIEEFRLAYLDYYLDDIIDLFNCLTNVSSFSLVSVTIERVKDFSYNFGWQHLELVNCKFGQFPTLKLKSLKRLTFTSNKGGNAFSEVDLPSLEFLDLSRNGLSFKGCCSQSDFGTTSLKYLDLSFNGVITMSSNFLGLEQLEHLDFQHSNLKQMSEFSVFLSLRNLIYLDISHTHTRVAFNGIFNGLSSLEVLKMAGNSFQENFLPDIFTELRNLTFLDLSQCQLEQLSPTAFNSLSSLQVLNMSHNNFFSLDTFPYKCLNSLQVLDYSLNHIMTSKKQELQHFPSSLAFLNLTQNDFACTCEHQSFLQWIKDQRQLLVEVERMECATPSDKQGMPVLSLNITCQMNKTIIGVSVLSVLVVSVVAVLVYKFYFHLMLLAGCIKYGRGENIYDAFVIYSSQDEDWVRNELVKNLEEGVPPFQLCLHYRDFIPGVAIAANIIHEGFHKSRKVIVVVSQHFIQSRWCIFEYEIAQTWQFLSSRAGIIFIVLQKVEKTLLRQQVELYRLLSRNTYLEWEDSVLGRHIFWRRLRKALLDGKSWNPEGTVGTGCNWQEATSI
Sequence of Human TLR4 (Q9Y6Y9 19-160 partner): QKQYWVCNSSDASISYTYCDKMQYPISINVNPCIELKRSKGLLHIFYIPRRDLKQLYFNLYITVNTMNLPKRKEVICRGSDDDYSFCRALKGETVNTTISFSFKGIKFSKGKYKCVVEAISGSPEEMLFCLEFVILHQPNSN

With `COc1ccc([C@@H]2C[C@H](C(F)(F)F)n3nc(-c4ccc(C(=O)N5CCNCC5)cc4)cc3N2)cc1OC` [ER-892887, (4-((5S,7R)-5-(3,4-dimethoxyphenyl)-7-(trifluoromethyl)-4,5,6,7-tetrahydropyrazolo[1,5-a]pyrimidin-2-yl)phenyl)(piperazin-1-yl)methanone], the IC50 (in general, the point on the concentration scale where inhibition reaches its midpoint) with Human TLR7/8 was 0.016 µM; on Human TLR4, over 10 µM; on Human TLR9, over 10 µM.
